{"source": "ChEMBL document CHEMBL6103588", "about": "“Promising thiazolidinedione-thiazole based multi-target and neuroprotective hybrids for Alzheimer's disease: Design, synthesis, in-vitro, in-vivo and in-silico studies” (Eur J Med Chem, 2025)", "key": {"Mus musculus": {"system": "Mus musculus", "assay": "Antioxidant activity against scopolamine-induced Albino mouse assessed as increase in catalase activity in brain at 5 mg/kg measured after 24 hrs", "assay_type": "functional, organism-based"}, "in vitro": {"assay": "in vitro", "conditions": "PAMPA, pH 7.4", "description": "Permeability of compound in PBS at pH 7.4 incubated for 20 hrs by PAMPA-BBB assay"}, "[1]": {"assay": "Acute toxicity in male Swiss albino mouse assessed as signs of distress at 1500 mg/kg BW, po administered as single dose via gavage measured after 48 hrs by up-and-down method", "assay_type": "organism-based", "conditions": "in vivo"}, "[2]": {"assay": "Acute toxicity in male Swiss albino mouse assessed as ataxia at 450 mg/kg BW, po administered as single dose via gavage measured after 1 hrs by up-and-down method", "assay_type": "organism-based", "conditions": "in vivo"}, "[3]": {"assay": "Lipophilicity, logP of compound", "assay_type": "physicochemical", "conditions": "octanol/water"}, "[4]": {"assay": "Acute toxicity in male Swiss albino mouse assessed as signs of discomfort at 1200 mg/kg BW, po administered as single dose via gavage measured after 20 mins by up-and-down method", "assay_type": "organism-based", "conditions": "in vivo"}, "[5]": {"target": "T1, Polyunsaturated fatty acid 5-lipoxygenase (Homo sapiens, UniProt P09917)", "T1 sequence (P09917 whole entry)": "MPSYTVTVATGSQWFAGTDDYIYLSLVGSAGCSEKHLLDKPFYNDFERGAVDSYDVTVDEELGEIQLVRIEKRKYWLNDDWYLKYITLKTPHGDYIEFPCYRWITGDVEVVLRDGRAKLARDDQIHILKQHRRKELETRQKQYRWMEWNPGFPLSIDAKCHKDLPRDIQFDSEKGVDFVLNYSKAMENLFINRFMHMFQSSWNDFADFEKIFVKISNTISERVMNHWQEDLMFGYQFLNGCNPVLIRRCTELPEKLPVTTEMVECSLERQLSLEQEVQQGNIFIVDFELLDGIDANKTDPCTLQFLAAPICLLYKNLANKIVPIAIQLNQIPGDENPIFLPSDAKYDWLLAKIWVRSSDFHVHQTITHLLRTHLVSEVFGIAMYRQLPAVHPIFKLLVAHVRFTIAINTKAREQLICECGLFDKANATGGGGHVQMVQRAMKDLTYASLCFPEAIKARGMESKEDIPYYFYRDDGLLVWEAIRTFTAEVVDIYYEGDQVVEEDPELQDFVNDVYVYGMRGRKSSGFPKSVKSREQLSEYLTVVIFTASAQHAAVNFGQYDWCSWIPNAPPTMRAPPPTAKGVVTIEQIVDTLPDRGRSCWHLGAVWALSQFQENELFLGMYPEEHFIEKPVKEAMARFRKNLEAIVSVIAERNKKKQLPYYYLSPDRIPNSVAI", "assay": "Inhibition of 5-LOX (unknown origin) using linoleic acid as substrate incubated for 5 mins followed by substrate addition"}, "[6]": {"assay": "Acute toxicity in male Swiss albino mouse assessed as lethargy at 1200 mg/kg BW, po administered as single dose via gavage measured after 20 mins by up-and-down method", "assay_type": "organism-based", "conditions": "in vivo"}, "[7]": {"assay": "Acute toxicity in male Swiss albino mouse assessed as signs of pain at 1500 mg/kg BW, po administered as single dose via gavage measured after 48 hrs by up-and-down method", "assay_type": "organism-based", "conditions": "in vivo"}, "Cholinesterase": {"target": "Cholinesterase (Equus caballus, UniProt P81908)", "sequence (P81908 whole entry)": "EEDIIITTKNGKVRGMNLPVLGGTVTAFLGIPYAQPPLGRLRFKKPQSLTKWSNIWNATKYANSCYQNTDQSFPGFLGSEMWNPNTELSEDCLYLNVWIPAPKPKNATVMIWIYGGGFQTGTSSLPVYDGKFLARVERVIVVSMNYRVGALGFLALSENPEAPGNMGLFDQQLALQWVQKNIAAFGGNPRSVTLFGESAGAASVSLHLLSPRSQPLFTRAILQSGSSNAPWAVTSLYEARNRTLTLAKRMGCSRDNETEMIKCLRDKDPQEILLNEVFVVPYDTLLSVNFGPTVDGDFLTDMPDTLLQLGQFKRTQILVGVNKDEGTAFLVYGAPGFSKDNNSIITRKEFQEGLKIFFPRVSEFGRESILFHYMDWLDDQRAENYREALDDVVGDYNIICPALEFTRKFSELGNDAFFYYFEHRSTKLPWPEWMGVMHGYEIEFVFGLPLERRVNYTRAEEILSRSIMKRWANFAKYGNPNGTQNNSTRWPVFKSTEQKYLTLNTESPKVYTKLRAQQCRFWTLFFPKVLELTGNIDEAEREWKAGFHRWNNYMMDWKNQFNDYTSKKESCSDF", "assay": "Inhibition of equine serum BuChE using butyrylthiocholine iodide as substrate pre-incubated for 10 mins followed by substrate addition and measured after 15 mins by DTNB reagent based Ellman's method"}, "[8]": {"assay": "Acute toxicity in male Swiss albino mouse assessed as lethargy at 450 mg/kg BW, po administered as single dose via gavage measured after 1 hrs by up-and-down method", "assay_type": "organism-based", "conditions": "in vivo"}, "[9]": {"target": "Acetylcholinesterase (Electrophorus electricus) (UniProt O42275)", "sequence (O42275 24-633 limits assumed)": "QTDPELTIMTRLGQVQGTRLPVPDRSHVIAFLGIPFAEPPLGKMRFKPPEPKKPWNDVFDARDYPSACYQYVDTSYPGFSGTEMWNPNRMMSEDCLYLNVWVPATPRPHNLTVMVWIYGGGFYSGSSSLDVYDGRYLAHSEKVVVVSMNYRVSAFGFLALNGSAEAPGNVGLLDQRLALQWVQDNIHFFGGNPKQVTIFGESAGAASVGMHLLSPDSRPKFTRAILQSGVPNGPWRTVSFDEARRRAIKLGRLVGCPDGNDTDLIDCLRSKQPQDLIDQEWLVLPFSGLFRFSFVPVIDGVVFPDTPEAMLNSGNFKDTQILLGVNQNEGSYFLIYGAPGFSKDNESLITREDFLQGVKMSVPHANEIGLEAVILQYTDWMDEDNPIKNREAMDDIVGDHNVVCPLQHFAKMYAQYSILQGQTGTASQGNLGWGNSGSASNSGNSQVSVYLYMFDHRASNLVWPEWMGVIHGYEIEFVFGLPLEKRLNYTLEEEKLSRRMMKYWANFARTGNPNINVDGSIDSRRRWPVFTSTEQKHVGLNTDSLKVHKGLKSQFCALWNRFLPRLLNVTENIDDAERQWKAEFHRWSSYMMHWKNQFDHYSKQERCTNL", "assay": "Mixed-type inhibition of electric eel AChE using acetylthiocholine iodide as substrate assessed as decrease in Vmax […] at 0.036 to 0.144 uM preincubated for 15 mins by Lineweaver-burk plot analysis", "conditions": "dose 0.036-0.144 µM"}, "[10]": {"assay": "Acute toxicity in male Swiss albino mouse assessed as signs of pain at 1200 mg/kg BW, po administered as single dose via gavage measured after 20 mins by up-and-down method", "assay_type": "organism-based", "conditions": "in vivo"}, "Acetylcholinesterase": {"target": "Acetylcholinesterase (Electrophorus electricus, UniProt O42275)", "sequence (O42275 whole entry)": "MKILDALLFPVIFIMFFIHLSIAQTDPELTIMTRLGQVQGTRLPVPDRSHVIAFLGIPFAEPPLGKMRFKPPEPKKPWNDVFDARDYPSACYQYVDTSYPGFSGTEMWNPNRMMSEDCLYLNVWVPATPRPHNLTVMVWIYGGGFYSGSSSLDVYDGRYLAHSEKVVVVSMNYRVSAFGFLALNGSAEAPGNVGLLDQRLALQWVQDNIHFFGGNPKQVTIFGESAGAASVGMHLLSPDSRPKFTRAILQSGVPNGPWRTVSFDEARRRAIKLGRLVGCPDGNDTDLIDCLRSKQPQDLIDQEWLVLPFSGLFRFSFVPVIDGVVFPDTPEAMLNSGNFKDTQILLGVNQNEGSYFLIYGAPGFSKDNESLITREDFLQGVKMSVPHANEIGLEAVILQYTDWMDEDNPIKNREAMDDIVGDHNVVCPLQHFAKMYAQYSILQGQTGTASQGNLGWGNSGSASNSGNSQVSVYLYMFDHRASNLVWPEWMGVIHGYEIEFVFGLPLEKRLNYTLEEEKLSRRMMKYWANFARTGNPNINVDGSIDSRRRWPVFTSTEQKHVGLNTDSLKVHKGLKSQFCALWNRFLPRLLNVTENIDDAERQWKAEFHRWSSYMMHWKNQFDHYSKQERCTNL", "assay": "Inhibition of Electric eel AChE using acetylthiocholine iodide as substrate pre-incubated for 10 mins followed by substrate addition and measured after 15 mins by DTNB reagent based Ellman's method", "conditions": "read-out: IC50"}, "[11]": {"assay": "Acute toxicity in male Swiss albino mouse assessed as mortality rate at 1200 mg/kg BW, po administered as single dose via gavage measured after 48 hrs by up-and-down method relative to control", "assay_type": "organism-based", "conditions": "in vivo"}, "[12]": {"assay": "Acute toxicity in male Swiss albino mouse assessed as mortality rate at 650 mg/kg BW, po administered as single dose via gavage measured after 48 hrs by up-and-down method relative to control", "assay_type": "organism-based", "conditions": "in vivo"}, "[13]": {"assay": "Acute toxicity in male Swiss albino mouse assessed as survival time at 250 mg/kg BW, po administered as single dose via gavage by up-and-down method", "assay_type": "organism-based", "conditions": "in vivo"}, "[14]": {"assay": "Neurotoxicity against human SH-SY5Y cells assessed as reduction in cell viability at 100 uM incubated for 24 hrs by MTT assay", "assay_type": "toxicity, cell-based"}, "[15]": {"assay": "Neurotoxicity against human SH-SY5Y cells assessed as reduction in cell viability upto 50 uM incubated for 24 hrs by MTT assay", "assay_type": "toxicity, cell-based"}, "[16]": {"assay": "Acute toxicity in male Swiss albino mouse assessed as mortality rate at 1500 mg/kg BW, po administered as single dose via gavage measured after 48 hrs by up-and-down method relative to control", "assay_type": "organism-based", "conditions": "in vivo"}, "[17]": {"target": "T2, Amine oxidase [flavin-containing] A (Homo sapiens, UniProt P21397)", "T2 sequence (P21397 whole entry)": "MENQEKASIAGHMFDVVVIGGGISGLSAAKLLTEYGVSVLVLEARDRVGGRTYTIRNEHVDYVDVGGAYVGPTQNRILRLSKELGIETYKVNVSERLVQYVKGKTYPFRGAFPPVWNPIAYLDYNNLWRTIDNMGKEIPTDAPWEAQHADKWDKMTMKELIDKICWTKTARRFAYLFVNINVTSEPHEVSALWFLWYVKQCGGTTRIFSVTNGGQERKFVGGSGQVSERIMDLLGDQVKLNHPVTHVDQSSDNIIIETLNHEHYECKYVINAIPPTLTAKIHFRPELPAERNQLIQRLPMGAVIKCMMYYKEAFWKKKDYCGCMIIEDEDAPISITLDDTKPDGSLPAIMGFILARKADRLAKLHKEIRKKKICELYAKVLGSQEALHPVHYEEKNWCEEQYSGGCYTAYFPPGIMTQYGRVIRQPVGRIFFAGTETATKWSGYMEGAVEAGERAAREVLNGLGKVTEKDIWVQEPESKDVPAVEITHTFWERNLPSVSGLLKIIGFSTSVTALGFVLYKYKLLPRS", "assay": "Inhibition of human MAO-A using tyramine/benzylamine as substrate measured after 30 mins by fluorometric assay", "conditions": "read-out: IC50"}, "PC-12": {"system": "PC-12", "assay": "Neuroprotective activity against H2O2-induced rat PC12 cells assessed as protection against H2O2-induced oxidative stress by measuring cell viability at 25 uM pretreated for 24 hr followed by H2O2 addition and measured after 24 hrs by MTT reagent based spectrophotometric analysis (reference value: 47.32 %)", "assay_type": "functional", "conditions": "time 48 hrs"}, "[18]": {"assay": "Acute toxicity in male Swiss albino mouse assessed as survival time at 1200 mg/kg BW, po administered as single dose via gavage by up-and-down method", "assay_type": "organism-based", "conditions": "in vivo"}}, "note": "Activity calls are given as the source filed them. The rule behind the calls is not given here.", "data": [{"compound": "COc1cc(/C=C/C(=O)Nc2ccc3sc(NCN4C(=O)CSC4=O)nc3c2)ccc1O", "values": [{"measurement": "Activity", "setting": "Mus musculus", "result": "Active"}, {"measurement": "Papp at 20 h", "setting": "in vitro", "result": 5.7, "unit": "×10⁻⁶ cm/s"}, {"measurement": "Activity", "setting": "[1]", "result": "Toxic"}, {"measurement": "Activity", "setting": "[2]", "result": "Toxic"}, {"measurement": "logP", "setting": "[3]", "result": 3.34}, {"measurement": "Activity", "setting": "[4]", "result": "Toxic"}, {"measurement": "IC50", "setting": "[5]", "result": 0.18, "unit": "µM"}, {"measurement": "Activity", "setting": "[6]", "result": "Toxic"}, {"measurement": "Activity", "setting": "[7]", "result": "Toxic"}, {"measurement": "IC50", "setting": "Cholinesterase", "result": 9.81, "unit": "µM"}, {"measurement": "Activity", "setting": "[8]", "result": "Toxic"}, {"measurement": "inhibition", "setting": "[9]", "result": "Active; Inhibition Of Free Enzyme And Enzyme-Substrate Complex."}, {"measurement": "Activity", "setting": "[10]", "result": "Toxic"}, {"measurement": "IC50", "setting": "Acetylcholinesterase", "result": 0.072, "unit": "µM"}, {"measurement": "mortality at 48 h", "setting": "[11]", "result": 80, "unit": "%"}, {"measurement": "mortality at 48 h", "setting": "[12]", "result": 28.6, "unit": "%"}, {"measurement": "Time", "setting": "[13]", "result": "> 48", "unit": "h"}, {"measurement": "Activity", "setting": "[14]", "result": "Toxic"}, {"measurement": "Activity", "setting": "[15]", "result": "Non-toxic"}, {"measurement": "mortality at 48 h", "setting": "[16]", "result": 100, "unit": "%"}, {"measurement": "IC50", "setting": "[17]", "result": 14.5, "unit": "µM"}, {"measurement": "Activity", "setting": "PC-12", "result": 83.01, "unit": "%"}, {"measurement": "Time", "setting": "[18]", "result": 40, "unit": "min"}]}]}
